Literature values, collected in paper PMC8780741, “Integration of In Silico, In Vitro and In Situ Tools for the Preformulation and Characterization of a Novel Cardio-Neuroprotective Compound during the Early Stages of Drug Development” (Pharmaceutics, 2022).

Design: method as in PMID 15832504
Conditions: reference compound for the permeability cut-off; cited from earlier work

Which logP does the source give for `COCCc1ccc(OCC(O)CNC(C)C)cc1` (stereo not shown) [Metoprolol] here?
The logP was 1.72.
